Assay results reported in PMC8341910, “Structural and biophysical insights into the mode of covalent binding of rationally designed potent BMX inhibitors” (RSC Chemical Biology, 2020).
“And” between values parts separate entries of the source, which are not always exact repeats. Equal values may be shown once. Read-outs that look alike come from different tables or passages of the source.

Key:
DAUDI = assay: Multi cell line growth assay (CellTiter-Glo, 72 h); type: cell-based, human; conditions: Homo sapiens, Daudi, Lymphoid, ND = no growth inhibition observed
PC3 cells = assay: PC-3 cell growth assay (CellTiter-Glo, 96 h); type: cell-based; conditions: Homo sapiens, PC-3, 96 h, read-out: GI50 PC3
Procedure: (§1) GI50 values are reported in μM and are the mean of three individual experiments performed in triplicate. N.d., non-determined, no growth inhibition observed within the concentrations tested.
(§2) Cellular activity Assay: LNCaP and PC-3 Cell Growth Assay
(§3) Cells were seeded in white, opaque-bottom 96-well plates at 5000 cells/well (LNCaP) or 2000 cells/well (PC-3) in a total volume of 100 µL of culture media.
(§4) fold) in 100 µL media were added to the cells 24 hours later. After 96 hours incubation cellular viability was assessed by CellTiter-Glo® (Promega) according to the manufacturer’s instructions. The values were normalized to vehicle and IC50 was calculated using GraphPad

[1] = target: T1, recombinant human BMX protein (hBMX) (Homo sapiens, UniProt P51813); assay: Differential scanning fluorimetry (DSF); type: binding; conditions: 100 μM compound
T1 construct: Crystallization, data collection, and structure determination of BMX catalytic domain in; made in house; host or cells: Sf-9 insect cells
Procedure: We further characterized the binding interaction between JS24–JS27 and BMX by using differential scanning fluorimetry (DSF) and surface plasmon resonance (SPR). Purified recombinant human BMX protein (hBMX) was first subjected to thermal scanning in the absence and presence of JS24–JS27, and the respective protein melting temperature (Tm) calculated.
Differential Scanning Fluorimetry:
DSF was performed in MicroAmp™ EnduraPlate™ Optical 96 -Well Clear Reaction Plates
with Barcode (Applied Biosystems, Life Technologies, California, USA) using a QuantStudio
7 Flex Real-Time PCR System (Applied Biosystems). Pre-incubation of the protein with the
compound for 2 hours at 4 °C was required prior to DSF experiments. The final reaction mixture
(20 μL of total volume) contained 4 μg of His6-BMX, 4-fold of Protein Thermal Shift™ Dye
(Applied Biosystems) diluted in protein buffer solution, and 100 μM of compound. The
temperatures were obtained by taking the midpoint of each transition.

22 RV1 = assay: Multi cell line growth assay (CellTiter-Glo, 72 h); type: cell-based, human; conditions: Homo sapiens, 22Rv1, Prostate, ND = no growth inhibition observed
LNCaP = assay: Multi cell line growth assay (CellTiter-Glo, 72 h); type: cell-based, human; conditions: Homo sapiens, LNCaP, Prostate, ND = no growth inhibition observed within the concentrations tested
U-87MG = assay: Multi cell line growth assay (CellTiter-Glo, 72 h); type: cell-based; conditions: Homo sapiens, Brain, ND = no growth inhibition observed
RS4(11) = assay: Multi cell line growth assay (CellTiter-Glo, 72 h); type: cell-based, human; conditions: Homo sapiens, RS4-11, Lung (so in the source), ND = no growth inhibition observed
[2] = Dynamic light scattering, colloidal aggregation; type: physicochemical; conditions: deionized and filtered water (0.1% DMSO), kinetic from dmso stock, measured at 10 µM, 1 µM and 100 nM, 25 °C, read-out: DLS maximum soluble concentration at which no aggregates are observed
Procedure: In addition, we measured particle sizes by using dynamic light scattering (DLS).
DLS is measured at 10 µM, 1µM and 100 nM. The maximum soluble
concentration – at which no aggregates are observed - is indicated and the colour code indicates
Dynamic Light Scattering:
Dynamic light scattering (Zetasizer Nano S, Malvern, UK) was used to determine compound colloidal aggregation. […] A 10 mM stock solution of
test compounds was prepared in DMSO, following dilution to deionized and filtered water to
obtain an analyte solution of 10 μM (0.1% DMSO). Colloidal aggregation was measured
through sequential dilutions at 10 μM, 1 μM and 0.1 μM.

[3] = target: T2, wild-type BMX in PC3 cells (Homo sapiens, UniProt P51813); assay: BMX degradation assay in PC3 cells (Western blot); type: cell-based; conditions: 10 μM; 24 h and 72 h; band intensity normalized to α-Tubulin
T2 construct: endogenous in cells; host or cells: PC3 prostate cancer cells (wild-type, untransfected)
Procedure: The cell proliferation depends on BMX kinase activity that was used to monitor the cellular activity of the compounds (IC50). […].  Fig. 5 (a) Intracellular target engagement in HEK293 cells transiently transfected with BMX expressing NanoLuc®-BMX fusion vector with Promega's NanoBRET™ TE Intracellular Kinase Assay. […] Band intensity was measured using ImageJ and normalized with α-Tubulin band intensity. […] Data are mean ± standard deviation obtained from at least three independent measurements (n = 3). See ESI ^† for additional data and analysis. […] | page 12: […]
degradation assay. Protein band intensity normalized with α-Tubulin band intensity and quantified using ImageJ. Data was obtained from at least three independent measurements […]
concentration against PC3 cells, plated on 6-well plates, a day after attachment. DMSO was used as a control vehicle. At 24 h and 72 h of incubation, cells were washed in 1X PBS and lysed in 100 µL RIPA Buffer (in house) supplemented with EDTA-free Protease Inhibitor Cocktail (Merk) and DNase I (Merk). The lysis procedure was performed by re-suspending cells continuously, followed by a incubation of 30 min on ice. BMX antibody (Abcam) and tubulin antibody (Cell signaling Technology) were used in the Western blot. Band intensity […]

in vitro = conditions: PAMPA
Description: (§5) For assessment of drug permeability, we relied on parallel artificial membrane permeability assay (PAMPA) performed at Pion Inc. with the PAMPA Evolution™ instrument (Table S1, ESI ^†).
(§6) methods (ESOL model1 and Ali et al.2) PAMPA: Pe is effective permeability (x10-6 cm/sec)
(§7) measured directly from assay at pH 6.8 and %R is membrane retention.
(§8) as the average of quadruplicates. Und label refers to compounds with extremely low solubility
(§9) for which UV limits were below the detection limits therefore considered undetected.
(§10) Compounds were labelled as high permeability (green), medium permeability (orange) or low
(§11) Artificial Membrane Permeability (PAMPA):
(§12) The PAMPA Evolution™ instrument was used to determine permeability, at Pion Inc. In
(§13) PAMPA, a sandwich is formed such that each composite well is divided into two chambers,
(§14) measured at pH 6.8 in the donor compartment using low-binding, low UV Prisma buffer. The
(§15) drug-free acceptor compartment was filled with acceptor sink buffer containing a scavenger at
(§16) the start of the test. The proprietary scavenger mimics serum proteins and blood circulation,
(§17) thus creating sink conditions. Aqueous solutions of studied compounds are prepared by diluting
(§18) and thoroughly mixing 3 µL of DMSO stock in 600 µL of Prisma HT buffer. Final
(§19) concentration of organic solvent (DMSO) in aqueous buffer is ≤ 0.5% (v/v). The reference
(§20) solution is identical to the donor at time zero, so that any surface adsorption effects from the
(§21) plastic ware is compensated. The PAMPA sandwich was assembled and allowed to incubate
(§22) for ~15 hours. The solutions in the donor compartment were un-stirred within duration of the
(§23) experiment. Thus, the thickness of the aqueous boundary layer expected to be about 1000 µm.
(§24) The sandwich was then separated, and both the donor and receiver compartments were assayed
(§25) for the amount of drug present by comparison with the UV spectrum obtained from reference

PC3 = assay: Multi cell line growth assay (CellTiter-Glo, 72 h); type: cell-based, human; conditions: Homo sapiens, PC-3, Prostate, ND = no growth inhibition observed
MDA-MB-231 = assay: Multi cell line growth assay (CellTiter-Glo, 72 h); type: cell-based; conditions: Homo sapiens, Breast, ND = no growth inhibition observed
CAOV3 = assay: Multi cell line growth assay (CellTiter-Glo, 72 h); type: cell-based, human; conditions: Homo sapiens, Caov-3, Ovary, ND = no growth inhibition observed
DU145 = assay: Multi cell line growth assay (CellTiter-Glo, 72 h); type: cell-based; conditions: Homo sapiens, DU-145, Prostate, ND = no growth inhibition observed
[4] = target: NanoLuc®-BMX fusion vector in HEK293 cells (Homo sapiens, UniProt P51813); assay: NanoBRET TE intracellular kinase assay; type: cell-based; conditions: HEK293 transiently transfected with BMX; 1 h; duplicate, mean ± S.D.; read-out: intracellular target engagement IC50
Procedure: Target Engagement Intracellular Kinase Assay:
In-cell target engagement was performed at the Reaction Biology Corporation (USA) using the NanoBRETTM technology. Very briefly, HEK296 cells, purchased from ATCC, were
with the reference compound Dasatinib, for 1 hour of incubation. Compounds were diluted 10 times with 3-fold dilution, starting at 1 µM. Curve fits were performed only when % NanoBret
determined using the GraphPad Prism 8 (USA).

Kasumi = assay: Multi cell line growth assay (CellTiter-Glo, 72 h); type: cell-based, human; conditions: Homo sapiens, Blood, ND = no growth inhibition observed
BMX = target: T3, BMX (Homo sapiens, UniProt P51813); assay: BMX biochemical activity assay (HTRF, phosphorylation of a biotinylated peptide)
T3 sequence (P51813 1-675): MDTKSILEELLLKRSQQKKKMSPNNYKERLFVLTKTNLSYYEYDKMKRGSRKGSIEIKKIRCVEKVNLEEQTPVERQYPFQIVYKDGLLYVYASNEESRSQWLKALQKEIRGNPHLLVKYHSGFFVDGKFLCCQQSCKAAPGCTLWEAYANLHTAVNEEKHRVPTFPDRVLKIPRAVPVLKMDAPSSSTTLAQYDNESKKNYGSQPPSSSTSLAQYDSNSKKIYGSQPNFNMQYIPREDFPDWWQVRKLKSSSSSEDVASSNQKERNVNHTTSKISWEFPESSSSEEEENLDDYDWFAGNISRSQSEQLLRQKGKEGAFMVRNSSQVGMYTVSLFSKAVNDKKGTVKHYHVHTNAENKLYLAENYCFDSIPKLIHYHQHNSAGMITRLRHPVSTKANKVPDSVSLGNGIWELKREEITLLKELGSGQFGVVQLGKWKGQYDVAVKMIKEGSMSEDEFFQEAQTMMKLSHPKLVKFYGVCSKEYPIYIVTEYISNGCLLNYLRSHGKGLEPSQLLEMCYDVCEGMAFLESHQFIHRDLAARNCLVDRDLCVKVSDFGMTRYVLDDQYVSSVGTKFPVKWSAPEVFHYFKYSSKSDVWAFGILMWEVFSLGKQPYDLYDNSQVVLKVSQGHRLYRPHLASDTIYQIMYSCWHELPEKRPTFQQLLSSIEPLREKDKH

His6-hsBMX = target: T4, His6-hsBMX (Homo sapiens, UniProt P51813); assay: Surface plasmon resonance (SPR); type: binding; conditions: from kinetic constants
T4 construct: Crystallization, data collection, and structure determination of BMX catalytic domain in; made in house; host or cells: Sf-9 insect cells
Description: response upon compound injection (t=0s), or upon washing (t=220s), on immobilized His6-
hsBMX surfaces. Compound concentrations injected on already saturated surfaces were not
included in the 1:1 Langmuir fitting model. X-axis: time (s); y-axis: response (arbitrary units).
Inset plots [x-axis: compound concentration (M); y-axis: response (arbitrary units)] show the
steady-state affinity (KDss) fit for the interactions wherein equilibrium was reached.
Surface Plasmon Resonance:
The kinetic and affinity parameters of protein-compound interaction were evaluated by SPR.
Experiments were carried out in a Biacore 4000 instrument (Biacore AB, GE Healthcare Life
Sciences, Uppsala, Sweden) at 25 °C. His6-BMX protein was diluted to 10 µg/mL in sodium
acetate pH 5.5, in the presence of 5 µM staurosporine and immobilized onto CM5 (Series S)
sensor chips, using the standard amine coupling procedure. Prior to immobilization, the
carboxymethylated surface of the chip was activated with 400 mM 1-ethyl-3-(3-
dimethylaminopropyl)-carbodiimide and 100 mM N-hydroxysuccinimide for 10 min. HBS-N
(10 mM HEPES pH7.4, 150mM NaCl) was used as the background buffer. Protein was coupled
to the surface after 2 to 10 min injection times, at a flow rate of 10 µL/min, in order to reach
1500 to 3500 response units (RU). The remaining activated carboxymethylated groups were
blocked with a 7 min injection of 1 M ethanolamine pH 8.5. Compounds were pre-diluted in
DMSO to 50x the desired highest tested concentration and diluted afterwards in running buffer
(20 mM HEPES pH 7.4, 150 mM NaCl, 1 mM DTT, 0.1 mM EGTA, 0.05 % (v/v) TWEEN-
20, 5 mM MgCl2) in order to reach 2% of DMSO concentration. A DMSO solvent correction
(1% - 3%) was performed to account for variations in bulk signal and to achieve high-quality
data. Each compound was injected over immobilized His6-BMX for 220 s (30 µL min-1;
association phase) followed by 600 to 2000 s of buffer flow (dissociation phase) at a maximum
five times in 2-fold dilution series. All sensorgrams were processed by first subtracting the
binding response recorded from the control surface (reference spot), followed by subtracting
the buffer blank injection from the reaction spot. All datasets were fit to a simple 1:1 Langmuir
interaction model with the provided Biacore 4000 Evaluation software, to determine kinetic rate constants (kon, koff) or steady-state affinity (KDss).

Jurkat = assay: Multi cell line growth assay (CellTiter-Glo, 72 h); type: cell-based, human; conditions: Homo sapiens, Jurkat, Blood, ND = no growth inhibition observed
SK-N-MC = assay: Multi cell line growth assay (CellTiter-Glo, 72 h); type: cell-based, human; conditions: Homo sapiens, SK-N-MC, Brain, ND = no growth inhibition observed
LNCaP cells = assay: LNCaP cell growth assay (CellTiter-Glo, 96 h); type: cell-based; conditions: Homo sapiens, read-out: GI50 LNCaP
Procedure: as §1, §2, §3, §4

[5] = pH 6.8
Description: as §5, §6, §7, §8, §9, §10, §11, §12, §13, §14, §15, §16, §17, §18, §19, §20, §21, §22, §23, §24, §25

Compound: C=CC(=O)Nc1cc(-n2c(=O)ccc3cnc4ccc(-c5ccc(NS(C)(=O)=O)cc5)cc4c32)ccc1C [BMX-IN-1, reference compound]
- GI50 (DAUDI): 1680 ± 70 nM
- GI50 (PC3 cells): 11500 ± 2200 nM
- ΔTm at 100 µM ([1]; versus apo-BMX, read-out: ΔTm): 8.04 ± 0.32 °C
- Average Tm of BMX with compound ([1]; apo-BMX Tm 51.8-52.2 °C): 60.17±0.32 °C
- GI50 (22 RV1): 2070 ± 60 nM
- GI50 (LNCaP): 1810 ± 50 nM
- GI50 (U-87MG): 5330 ± 190 nM
- GI50 (RS4(11)): 1180 ± 60 nM
- solubility [2]: ≥ 10 µM
- degradation of BMX protein [3]: induce degradation of wild-type BMX in PC3 cells
- Papp (in vitro; pH 6.8, PAMPA permeability): 8.9 ×10⁻⁶ cm/s
- Papp (in vitro; pH 6.8, PAMPA/Pe effective permeability): 8.9 ± 0.8 ×10⁻⁶ cm/s
- GI50 (PC3): 11000 ± 1130 nM
- GI50 (MDA-MB-231): 23600 ± 480 nM
- GI50 (CAOV3): 7680 ± 130 nM
- GI50 (DU145): 17700 nM
- IC50 [4]: 495 nM
- GI50 (Kasumi): 3130 ± 60 nM
- IC50 (BMX; Experiment 1 of Fig. S3, control JS9A (in-house BMX-IN-1), read-out: BMX IC50): 360 ± 24 nM
- IC50 (BMX; Experiment 2 of Fig. S3, control commercial BMX-IN-1, read-out: BMX IC50): 55 ± 35 nM
- IC50 (BMX; Experiment 3 of Fig. S3, control commercial BMX-IN-1, read-out: BMX IC50): 230 ± 34.5 nM
- IC50 (BMX; Experiment 4 of Fig. S3 = Fig. 1b, duplicate, mean ± S.D., read-out: BMX inhibition IC50): 50.2 nM and 50 nM
- Kd (His6-hsBMX): 69 nM
- GI50 (Jurkat): 5990 nM
- GI50 (SK-N-MC): 2360 nM
- GI50 (LNCaP cells): 1700 nM
- PAMPA/%R membrane retention [5]: 55±8%
